The text below walks through data of ChEMBL document CHEMBL1649240, “Brain penetration of colistin in mice assessed by a novel high-performance liquid chromatographic technique” (Antimicrob Agents Chemother, 2009).

Assay type in all cases: ADME, organism-based
What all share (set-up): dose 5 mg/kg, route intravenous

In series [1] the test system is Brain. The series is described as follows: Drug level in mouse brain homogenate assessed as compound recovery after 4 hr post dose measured on basis of intraday target compound concentration of 3000 ng/g of brain tissue at 5 mg/kg, iv bolus dose by HPLC. The settings on record: in vivo.
Series [2] concerns Brain. The series is described as follows: Drug level in mouse brain homogenate assessed as compound recovery after 4 hr post dose measured on basis of intraday target compound concentration of 375 ng/g of brain tissue at 5 mg/kg, iv bolus dose by HPLC. The settings on record: in vivo.
For series [3], the system named is Brain. Put plainly: Drug level in mouse brain homogenate assessed as compound recovery after 4 hr post dose measured on basis of intraday target compound concentration of 93.8 ng/g of brain tissue at 5 mg/kg, iv bolus dose by HPLC. The settings on record: in vivo.
Series [4] in a line: Ratio of drug level in brain to plasma in Swiss mouse at 5 mg/kg, iv.

COLISTIN: the results for the Activity in series [1], in series [2] and in series [3] were 96%, 86% and 87%, respectively. The Ratio in series [4] turned out to be 0.02.
